# Measurements reported in US20100087457A1, “DOSAGES AND METHODS FOR THE TREATMENT OF CANCER” (Myriad Pharmaceuticals, Inc, priority 2007, published 2010).
# Counter-ions that a name gives are not always drawn. Like-named read-outs stand apart in the source and are kept apart here.
# Key:
# [1] = Phase I clinical trial: plasma concentrations after weekly intravenous infusion (pharmacokinetics); assay type: in vivo, human; settings: human, plasma, iv; for concentration at 1 h / concentration at 1 h after end of infusion: 1 hr after infusion; for concentration at 24 h after end of infusion / concentration at 24 h: 24 hr after infusion; for concentration at 12 h after end of infusion / concentration at 12 h: 12 hr after infusion; for concentration at 2 h / concentration at 2 h after end of infusion: 2 hr after infusion; for concentration at 4 h / concentration at 4 h after end of infusion: 4 hr after infusion; for Cmax: intravenous administration of a single dose, read-out: estimated Cmax
# Procedure: (§1) An open-label, dose-escalating, multiple-dose study to define the safety, tolerability and pharmacokinetics of weekly intravenous administration of (4-Methoxy-phenyl)-methyl-(2-methyl-quinazolin-4-yl)-amine hydrochloride was performed. A dosing schedule (each 4 week cycle) was performed for (4-Methoxy-phenyl)-methyl-(2-methyl-quinazolin-4-yl)-amine hydrochloride weekly for 3 weeks with no infusion on the fourth week of each cycle. Subjects with refractory solid tumors were enrolled in cohorts of 3. During Cycle 1, subjects were hospitalized during each infusion of (4-Methoxy-phenyl)-methyl-(2-methyl-quinazolin-4-yl)-amine hydrochloride and remained for observation and safety evaluation for approximately 24 hours following the end of the infusion. All subjects had continuous telemetry for 2 hours prior to infusion, for 1-2 hour infusion and for 3 hours after the end of the infusion. Any clinically significant electrocardiographic (ECG) wave form abnormality was recorded and prolongation of the monitoring period extended at the discretion of the principal investigator.
# Blood samples were collected prior to dosing, at the end of the infusion, and 1, 2, 4, 6, 12, and 24 hours after the infusion. This sampling schedule occurred on Days 1 and 15 with administration of the first and third doses. Samples were collected into tubes containing EDTA and stored on ice until centrifuged. The plasma was frozen at approximately −20° C. in labeled, plastic tubes, or vials, and tightly capped. The samples were shipped to Myriad Pharmaceuticals, Inc. for analysis of (4-Methoxy-phenyl)-methyl-(2-methyl-quinazolin-4-yl)-amine hydrochloride. Pharmacokinetic analysis was conducted using WinNonlin 4.0®.
# [2] = Phase I clinical trial: safety and tolerability in subjects with refractory solid tumors; assay type: in vivo, human
# Procedure: as §1
# Electrocardiograms were obtained prior to starting the infusion and within 30 minutes of the end of infusion for each infusion of the first cycle. Electrocardiograms on Day 1 were obtained in triplicate 5 minutes apart.
# Neurocognitive assessments were made by administration of the Mini-Mental State Examination (MMSE), the Hopkins Verbal Learning and timed Grooved Pegboard tests before administration of the intravenous infusion and approximately 24 hours of the infusion at each weekly administration of the first cycle.
# On days 1, 8, and 15 of each cycle, vital signs were obtained prior to the first dose, at 15, 30, and 60 minutes after the initiation of the infusion, and at 0.5, 1, 1.5, 2, and 4 hours after the end of the intravenous infusion. Vital signs at all time points beyond the start of the intravenous infusion included heart rate, blood pressure and respirations. Temperature was measured at the end of the infusion and 4 hours later.
# Individual subjects were allowed to continue on repeated weekly×3 administrations every 28 days with no dose increase provided there was no unacceptable toxicity or disease progression.
# Tumor response was evaluated by response evaluation criteria in solid tumors (RECIST) criteria. To prevent sever hypersensitivity reactions due to Cremophor® EL, subjects were premedicated with oral dexamethasone (20 mg) administered approximately 12 and 6 hours before the intravenous infusion with (4-Methoxy-phenyl)-methyl-(2-methyl-quinazolin-4-yl)-amine hydrochloride, diphenhydramine (50 mg) or its equivalent administered intravenously 30-60 minutes before (4-Methoxy-phenyl)-methyl-(2-methyl-quinazolin-4-yl)-amine hydrochloride, and cimetidine (300 mg) or ranitidine (50 mg) administered intravenously 30-60 minutes before (4-Methoxy-phenyl)-methyl-(2-methyl-quinazolin-4-yl)-amine hydrochloride.
# [3] = 1 mg/m^2, Day 1, 1.0 mg/m^2 i.v., infusion 1 hr, LLOQ 1 ng/mL
# [4] = 1 mg/m^2, Day 15, 1.0 mg/m^2 i.v., infusion 1 hr, LLOQ 1 ng/mL
# [5] = 1.5 mg/m^2, Day 15, 1.5 mg/m^2 i.v., infusion 1 hr, LLOQ 1 ng/mL
# [6] = 2.1 mg/m^2, Day 1, 2.1 mg/m^2 i.v., infusion 1 hr, LLOQ 1 ng/mL
# [7] = 2.1 mg/m^2, Day 15, 2.1 mg/m^2 i.v., infusion 1 hr, LLOQ 1 ng/mL
# [8] = 2.7 mg/m^2, Day 1, 2.7 mg/m^2 i.v., infusion 1 hr, LLOQ 1 ng/mL
# [9] = 3.3 mg/m^2, Day 1, 3.3 mg/m^2 i.v., infusion 2 hr, LLOQ 1 ng/mL
# [10] = 3.3 mg/m^2, Day 15, 3.3 mg/m^2 i.v., infusion 2 hr, LLOQ 1 ng/mL
# [11] = 3.9 mg/m^2, Day 15, 3.9 mg/m^2 i.v., infusion 2 hr, LLOQ 1 ng/mL
# [12] = 4.5 mg/m^2, Day 15, 4.5 mg/m^2 i.v., infusion 2 hr, LLOQ 1 ng/mL
compound,measurement,setting,value
COc1ccc(N(C)c2nc(C)nc3ccccc23)cc1 [(4-Methoxy-phenyl)-methyl-(2-methyl-quinazolin-4-yl)-amine hydrochloride],concentration at 1 h,"[1]; 0.3 mg/m^2, Day 15, 0.3 mg/m^2 i.v., infusion 1 hr, LLOQ 1 ng/mL",1.43 ng/mL
same,concentration at 24 h after end of infusion,"[1]; 0.6 mg/m^2, Day 1, 0.6 mg/m^2 i.v., infusion 1 hr, LLOQ 1 ng/mL",5.89 ng/mL
same,concentration at 12 h after end of infusion,[1]; [3],3.62 ng/mL
same,concentration at 24 h after end of infusion,[1]; [3],1.98 ng/mL
same,concentration at 1 h,[1]; [4],2.24 ng/mL
same,concentration at 2 h,[1]; [4],1.23 ng/mL
same,concentration at 4 h,[1]; [4],1.26 ng/mL
same,concentration at 12 h after end of infusion,"[1]; 1.5 mg/m^2, Day 1, 1.5 mg/m^2 i.v., infusion 1 hr, LLOQ 1 ng/mL",1.95 ng/mL
same,concentration at 4 h,[1]; [5],1.01 ng/mL
same,concentration at 6 h,"[1]; 1.5 mg/m^2, Day 15, 1.5 mg/m^2 i.v., infusion 1 hr, 6 hr after infusion, LLOQ 1 ng/mL",1.47 ng/mL
same,concentration at 12 h,[1]; [5],2.24 ng/mL
same,concentration at 24 h,[1]; [5],1.63 ng/mL
same,concentration at 1 h after end of infusion,[1]; [6],4.06 ng/mL
same,concentration at 2 h after end of infusion,[1]; [6],3.28 ng/mL
same,concentration at 4 h after end of infusion,[1]; [6],2.64 ng/mL
same,concentration at 6 h after end of infusion,"[1]; 2.1 mg/m^2, Day 1, 2.1 mg/m^2 i.v., infusion 1 hr, 6 hr after infusion, LLOQ 1 ng/mL",1.12 ng/mL
same,concentration at 12 h after end of infusion,[1]; [6],1.09 ng/mL
same,concentration at 1 h,[1]; [7],4.81 ng/mL
same,concentration at 4 h,[1]; [7],2.05 ng/mL
same,concentration at 12 h,[1]; [7],1.09 ng/mL
same,concentration at 24 h,[1]; [7],2.63 ng/mL
same,concentration at 1 h after end of infusion,[1]; [8],6.16 ng/mL
same,concentration at 2 h after end of infusion,[1]; [8],4.37 ng/mL
same,concentration at 4 h after end of infusion,[1]; [8],3.16 ng/mL
same,concentration at 6 h after end of infusion,"[1]; 2.7 mg/m^2, Day 1, 2.7 mg/m^2 i.v., infusion 1 hr, 6 hr after infusion, LLOQ 1 ng/mL",2.09 ng/mL
same,concentration at 12 h after end of infusion,[1]; [8],2.35 ng/mL
same,concentration at 24 h after end of infusion,[1]; [8],1.36 ng/mL
same,concentration at 12 h,"[1]; 2.7 mg/m^2, Day 15, 2.7 mg/m^2 i.v., infusion 1 hr, LLOQ 1 ng/mL",3.95 ng/mL
same,concentration at 2 h,[1]; [9],6.03 ng/mL
same,concentration at 24 h,[1]; [9],1.73 ng/mL
same,concentration at 1 h,"[1]; 3.3 mg/m^2, Day 15, 3.3 mg/m^2 i.v., infusion 1 hr, LLOQ 1 ng/mL",14.7 ng/mL
same,concentration at 1 h,[1]; [10],6.84 ng/mL
same,concentration at 2 h,[1]; [10],3.8 ng/mL
same,concentration at 24 h,[1]; [10],1.48 ng/mL
same,concentration at 1 h,[1]; [11],10.6 ng/mL
same,concentration at 2 h,[1]; [11],10.4 ng/mL
same,concentration at 4 h,[1]; [11],8.24 ng/mL
same,concentration at 24 h,"[1]; 4.5 mg/m^2, Day 1, 4.5 mg/m^2 i.v., infusion 2 hr, LLOQ 1 ng/mL",1.17 ng/mL
same,concentration at 1 h,[1]; [12],13.6 ng/mL
same,concentration at 2 h,[1]; [12],13.1 ng/mL
same,Cmax,[1]; Day 1,~14 ng/mL
same,Cmax,[1]; Day 15,~26 ng/mL
same,bradycardia,[2]; Phase 1 Trial,occasional episodes of bradycardia
same,dose limiting toxicity,[2]; Phase 1 Trial,"vascular in nature, manifested by an acute coronary syndrome"
same,intratumor bleeding,[2]; Phase 1 Trial,incidences of intratumor bleeding
same,systolic blood pressure,[2]; Phase 1 Trial,dose-related increase
same,"effects on cardiac conduction (PR, QRS or QTc)","[2]; Phase 1 Trial, ECG",no significant effects
same,cytotoxity peripherally,"[2]; Phase 1 Trial, at the administered doses",no evidence of cytotoxity peripherally
same,safety and tolerability,"[2]; Phase 1 Trial, weekly intravenous administration",safe and tolerable
same,dose ranges found to be safely tolerated,[2]; human patients,less than 3.3 mg/m^2
